Drawing on patent US11492335B2, “Aryl or heteroaryl triazolone derivatives or salts thereof, or pharmaceutical compositions comprising the same” (YUHAN CORPORATION, priority 2018, dated 2022), this text covers IC50 for 11 compounds.

SMILES strings stand for the structures. Counter-ions that a name gives are not always drawn. A value given as a limit tells only on which side of the number the result lay.

The IC50 is the concentration at which inhibition is half-maximal.

Common to all, as to format: biochemical
Experiment [1] has as its target T1, recombinant human MAO-A (monoamine oxidase-A) (Homo sapiens, UniProt P21397).
T1 construct: purchased Sigma-Aldrich
T1 sequence (P21397 1-527): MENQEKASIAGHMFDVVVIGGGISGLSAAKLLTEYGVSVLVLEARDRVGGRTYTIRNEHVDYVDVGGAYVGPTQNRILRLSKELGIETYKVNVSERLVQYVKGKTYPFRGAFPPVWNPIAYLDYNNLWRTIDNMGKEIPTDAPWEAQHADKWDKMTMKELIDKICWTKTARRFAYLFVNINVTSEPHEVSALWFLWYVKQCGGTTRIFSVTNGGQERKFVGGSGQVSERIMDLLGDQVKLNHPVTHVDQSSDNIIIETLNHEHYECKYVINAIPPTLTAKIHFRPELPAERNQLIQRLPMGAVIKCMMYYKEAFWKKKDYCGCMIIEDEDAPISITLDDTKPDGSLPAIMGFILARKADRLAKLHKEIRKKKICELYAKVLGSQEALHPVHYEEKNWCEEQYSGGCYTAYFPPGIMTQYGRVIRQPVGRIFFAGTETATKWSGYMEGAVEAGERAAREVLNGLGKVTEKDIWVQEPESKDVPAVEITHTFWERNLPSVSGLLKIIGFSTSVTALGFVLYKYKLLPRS
The experiment is described as follows: Activity on recombinant human MAO-A, Amplex Red method, 0.5 mM tyramine substrate. The conditions noted are these: 0.5 mM tyramine, read-out: Inhibitory Activity (IC50, nM) MAO-A. Summed up: (§1)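 8-point, 1:3 dose-response, four-parameter logistic IC50 from reduction in fluorescence rate versus DMSO control. HRP/Amplex Red detection of H2O2 (ex 544, em 590 nm) after 30 min, 37 °C compound–enzyme preincubation in pH 7.4 phosphate buffer. MAO-A substrate: 0.5 mM tyramine; MAO-B: 1 mM benzylamine.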

For experiment [2], the target named is T2, recombinant human MAO-B (monoamine oxidase-B) (Homo sapiens, UniProt P27338).
T2 construct: purchased Sigma-Aldrich
T2 sequence (P27338 1-520): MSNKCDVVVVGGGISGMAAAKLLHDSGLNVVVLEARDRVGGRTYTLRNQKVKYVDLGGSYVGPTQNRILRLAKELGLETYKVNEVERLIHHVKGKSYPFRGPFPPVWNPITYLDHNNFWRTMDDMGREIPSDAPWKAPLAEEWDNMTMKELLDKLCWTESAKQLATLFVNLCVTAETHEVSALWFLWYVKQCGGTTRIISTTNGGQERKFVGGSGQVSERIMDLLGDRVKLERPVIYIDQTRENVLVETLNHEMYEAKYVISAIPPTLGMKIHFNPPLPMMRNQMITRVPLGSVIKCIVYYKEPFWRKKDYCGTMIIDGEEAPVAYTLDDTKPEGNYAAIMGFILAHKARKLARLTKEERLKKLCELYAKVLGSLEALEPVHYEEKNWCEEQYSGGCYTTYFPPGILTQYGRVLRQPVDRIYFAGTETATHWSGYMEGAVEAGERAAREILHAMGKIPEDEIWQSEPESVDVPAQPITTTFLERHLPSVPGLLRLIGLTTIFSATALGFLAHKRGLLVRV
The experiment can be described thus: Activity on recombinant human MAO-B, Amplex Red method, 1 mM benzylamine substrate. Conditions: 1 mM benzylamine, read-out: Inhibitory Activity (IC50, nM) MAO-B. Summed up: as §1

Experiment [3] addresses T3, recombinant human DAO (diamine oxidase) (Homo sapiens, UniProt P19801).
T3 construct: purchased R&D systems
T3 sequence (P19801 20-751): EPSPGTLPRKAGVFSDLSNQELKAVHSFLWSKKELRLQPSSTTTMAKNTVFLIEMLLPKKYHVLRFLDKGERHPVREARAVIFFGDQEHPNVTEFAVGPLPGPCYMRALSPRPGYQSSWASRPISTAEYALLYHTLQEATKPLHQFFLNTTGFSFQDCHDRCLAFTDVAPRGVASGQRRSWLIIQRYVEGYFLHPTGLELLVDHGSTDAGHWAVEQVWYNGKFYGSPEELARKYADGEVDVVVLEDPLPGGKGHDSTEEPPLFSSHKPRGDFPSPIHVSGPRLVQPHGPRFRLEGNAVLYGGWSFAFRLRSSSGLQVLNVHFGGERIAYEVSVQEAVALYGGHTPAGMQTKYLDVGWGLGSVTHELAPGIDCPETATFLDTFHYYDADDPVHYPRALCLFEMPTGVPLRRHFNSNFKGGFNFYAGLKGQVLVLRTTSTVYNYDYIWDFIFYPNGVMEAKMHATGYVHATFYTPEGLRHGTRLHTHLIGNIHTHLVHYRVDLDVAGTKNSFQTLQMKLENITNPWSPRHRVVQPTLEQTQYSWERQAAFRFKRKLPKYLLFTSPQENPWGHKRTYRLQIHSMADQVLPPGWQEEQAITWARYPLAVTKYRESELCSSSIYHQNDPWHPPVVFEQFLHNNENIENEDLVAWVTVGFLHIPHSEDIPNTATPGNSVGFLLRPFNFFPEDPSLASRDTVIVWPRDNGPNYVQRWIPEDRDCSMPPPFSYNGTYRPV
The experiment can be described thus: Activity on recombinant human DAO, Amplex Red method, 1 mM putrescine substrate. The conditions noted are these: recombinant human DAO, 1 mM putrescine; * = between 10 and 100 nM, ** = between 300 and 1000 nM; read-out: Inhibitory Activity (IC50, nM) DAO. The method in brief: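 Inhibition of recombinant human DAO (diamine oxidase, R&D systems) was assessed with the Amplex Red Hydrogen Peroxide Assay Kit. Hydrogen peroxide produced from 1 mM putrescine was detected through an HRP-coupled reaction that converts Amplex Red into fluorescent resorufin, read at 544 nm excitation and 590 nm emission. IC50 values came from four-parameter logistic fits in GraphPad Prism.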

A further experiment concerns the target T4, recombinant human VAP-1 (Homo sapiens, UniProt Q16853).
T4 construct: purchased R&D systems
T4 sequence (Q16853 1-763): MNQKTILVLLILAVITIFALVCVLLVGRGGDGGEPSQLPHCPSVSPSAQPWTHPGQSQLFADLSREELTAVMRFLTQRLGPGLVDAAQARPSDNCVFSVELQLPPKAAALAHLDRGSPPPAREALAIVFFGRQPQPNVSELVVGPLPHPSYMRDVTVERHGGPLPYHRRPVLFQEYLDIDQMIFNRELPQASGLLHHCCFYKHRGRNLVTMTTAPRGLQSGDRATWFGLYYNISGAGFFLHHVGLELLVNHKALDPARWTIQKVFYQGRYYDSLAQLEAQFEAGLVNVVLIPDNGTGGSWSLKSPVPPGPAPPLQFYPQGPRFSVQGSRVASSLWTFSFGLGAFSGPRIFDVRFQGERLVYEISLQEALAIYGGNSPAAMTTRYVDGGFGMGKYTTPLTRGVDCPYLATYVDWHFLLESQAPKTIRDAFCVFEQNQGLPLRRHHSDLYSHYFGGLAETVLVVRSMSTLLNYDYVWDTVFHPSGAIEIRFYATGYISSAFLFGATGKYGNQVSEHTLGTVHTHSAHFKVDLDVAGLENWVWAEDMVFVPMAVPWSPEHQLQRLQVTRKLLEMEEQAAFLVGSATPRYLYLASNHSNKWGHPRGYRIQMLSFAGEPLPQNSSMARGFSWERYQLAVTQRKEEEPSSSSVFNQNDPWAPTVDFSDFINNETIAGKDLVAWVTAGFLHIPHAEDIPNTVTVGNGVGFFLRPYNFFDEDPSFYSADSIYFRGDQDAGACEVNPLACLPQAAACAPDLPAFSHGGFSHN
The experiment is described as follows: Activity on recombinant human VAP-1, Amplex Red HRP-coupled hydrogen peroxide assay, benzylamine substrate. Conditions: recombinant human VAP-1, benzylamine substrate, 30 min preincubation at 37° C.; read-out: Inhibitory Activity (IC50, nM) human VAP-1. Summed up: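 Compounds were preincubated with purified enzyme in 50 mM sodium phosphate pH 7.4 at 37 °C for 30 min, then 200 uM Amplex Red, 1 mM benzylamine and 1 U/mL HRP were added. Resorufin fluorescence (ex 544/em 590 nm) was followed over 1-2 h; IC50 came from 4-parameter fits of signal-rate inhibition.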

Consider `CC(C)n1cc(-c2cccc(-n3cnn(C/C(=C/F)CN)c3=O)c2)ccc1=O` [Example 90, 5-(3-{1-[(2E)-2-(aminomethyl)-3-fluoroprop-2-en-1-yl]-5-oxo-1,5-dihydro-4H-1,2,4-triazol-4-yl}phenyl)-1-(propan-2-yl)pyridin-2(1H)-one hydrochloride], for which the IC50 in experiment [1] was over 100000 nM; in experiment [2] it was over 10000 nM; in experiment [3], 19 nM; at recombinant human VAP-1, 1.4 nM.

Take `NC/C(=C/F)Cn1ncn(-c2cccc(-c3ccc4c(c3)OCO4)c2)c1=O` [Example 92, 2-[(2Z)-2-(aminomethyl)-3-fluoroprop-2-en-1-yl]-4-[3-(1,3-benzodioxol-5-yl)phenyl]-2,4-dihydro-3H-1,2,4-triazol-3-one hydrochloride]: the IC50 came to 9.69 nM in experiment [1], 1350 nM in experiment [2], 41 nM in experiment [3] and 1.1 nM on recombinant human VAP-1.

On to `NC/C(=C\F)Cn1ncn(-c2cccc(-c3ccc4c(c3)OCO4)c2)c1=O` [Example 93, 2-[(2E)-2-(aminomethyl)-3-fluoroprop-2-en-1-yl]-4-[3-(1,3-benzodioxol-5-yl)phenyl]-2,4-dihydro-3H-1,2,4-triazol-3-one hydrochloride], for which the IC50 in experiment [1] is over 10000 nM; in experiment [2], 221 nM; in experiment [3] it was under 100 nM; at recombinant human VAP-1, 0.48 nM.

`NC/C(=C/F)Cn1ncn(-c2cccc(-c3ccc4c(c3)OCCO4)c2)c1=O` [Example 94, 2-[(2Z)-2-(aminomethyl)-3-fluoroprop-2-en-1-yl]-4-[3-(2,3-dihydro-1,4-benzodioxin-6-yl)phenyl]-2,4-dihydro-3H-1,2,4-triazol-3-one hydrochloride]: the IC50 in experiment [1] was over 100000 nM; in experiment [2], 2630 nM; in experiment [3], 120 nM; on recombinant human VAP-1, 2 nM.

Regarding `NC/C(=C\F)Cn1ncn(-c2cccc(-c3ccc4c(c3)OCCO4)c2)c1=O` [Example 95, 2-[(2E)-2-(aminomethyl)-3-fluoroprop-2-en-1-yl]-4-[3-(2,3-dihydro-1,4-benzodioxin-6-yl)phenyl]-2,4-dihydro-3H-1,2,4-triazol-3-one hydrochloride], the IC50 in experiment [1] was over 100000 nM; in experiment [2], 1460 nM; in experiment [3], 37 nM; at recombinant human VAP-1 it was 0.69 nM.

In the case of `NC/C(=C\F)Cn1ncn(-c2cccc(-c3ccc4nonc4c3)c2)c1=O` [Example 96, 2-[(2E)-2-(aminomethyl)-3-fluoroprop-2-en-1-yl]-4-[3-(2,1,3-benzooxadiazol-5-yl)phenyl]-2,4-dihydro-3H-1,2,4-triazol-3-one hydrochloride], the IC50 is over 100000 nM in experiment [1], 390 nM in experiment [2], under 100 nM in experiment [3] and 0.51 nM at recombinant human VAP-1.

With `NC/C(=C\F)Cn1ncn(-c2cccc(-c3ccc4cn[nH]c4c3)c2)c1=O` [Example 97, 2-[(2E)-2-(aminomethyl)-3-fluoroprop-2-en-1-yl]-4-[3-(1H-indazol-6-yl)phenyl]-2,4-dihydro-3H-1,2,4-triazol-3-one hydrochloride], the IC50 in experiment [1] was 22500 nM; in experiment [2] it was over 10000 nM; in experiment [3], under 30 nM; on recombinant human VAP-1, 0.68 nM.

Regarding `NC/C(=C\F)Cn1ncn(-c2cccc(-c3cccc4[nH]ccc34)c2)c1=O` [Example 98, 2-[(2E)-2-(aminomethyl)-3-fluoroprop-2-en-1-yl]-4-[3-(1H-indol-4-yl)phenyl]-2,4-dihydro-3H-1,2,4-triazol-3-one hydrochloride], the IC50 in experiment [1] was determined as 76400 nM; in experiment [2], 9320 nM; in experiment [3], 68 nM; at recombinant human VAP-1, 4.7 nM.

As to `NC/C(=C\F)Cn1ncn(-c2cccc(-c3ccc4sc(N)nc4c3)c2)c1=O` [Example 99, 4-[3-(2-amino-1,3-benzothiazol-5-yl)phenyl]-2-[(2E)-2-(aminomethyl)-3-fluoroprop-2-en-1-yl]-2,4-dihydro-3H-1,2,4-triazol-3-one hydrochloride], the concentration for half-maximal inhibition (IC50) in experiment [1] is over 100000 nM; in experiment [2] it was 6420 nM; in experiment [3], under 100 nM; at recombinant human VAP-1, 0.82 nM.

Regarding `NC/C(=C\F)Cn1ncn(-c2cccc(-c3c[nH]c4ccccc34)c2)c1=O` [Example 100, 2-[(2E)-2-(aminomethyl)-3-fluoroprop-2-en-1-yl]-4-[3-(1H-indol-3-yl)phenyl]-2,4-dihydro-3H-1,2,4-triazol-3-one hydrochloride], the IC50 in experiment [1] worked out at 39300 nM; in experiment [2] it was 162 nM; in experiment [3] it was 27 nM; on recombinant human VAP-1 it was 0.92 nM.

As to `NC/C(=C\F)Cn1ncn(-c2cccc(-c3cc4ccccc4s3)c2)c1=O` [Example 101, 2-[(2E)-2-(aminomethyl)-3-fluoroprop-2-en-1-yl]-4-[3-(1-benzothiophen-2-yl)phenyl]-2,4-dihydro-3H-1,2,4-triazol-3-one hydrochloride], the IC50 in experiment [1] was found to be 58000 nM; in experiment [2], 300 nM; in experiment [3], 34 nM; on recombinant human VAP-1, 0.9 nM.
